Experimental data published in ChEMBL document CHEMBL3621199, “Structure-based approaches towards identification of fragments for the low-druggability ATAD2 bromodomain” (Medchemcomm, 2014).

The compounds below were run against T1, ATPase family AAA domain-containing protein 2 (Homo sapiens, UniProt Q6PL18) (assay: Binding affinity to recombinant human ATAD2 (982 to 1108 amino acids) bromodomain […] at methyl groups of leucine, valine, isoleucine, methionine expressed in Escherichia coli BL21 (DE3) by NMR titration).
T1 sequence (Q6PL18 whole entry): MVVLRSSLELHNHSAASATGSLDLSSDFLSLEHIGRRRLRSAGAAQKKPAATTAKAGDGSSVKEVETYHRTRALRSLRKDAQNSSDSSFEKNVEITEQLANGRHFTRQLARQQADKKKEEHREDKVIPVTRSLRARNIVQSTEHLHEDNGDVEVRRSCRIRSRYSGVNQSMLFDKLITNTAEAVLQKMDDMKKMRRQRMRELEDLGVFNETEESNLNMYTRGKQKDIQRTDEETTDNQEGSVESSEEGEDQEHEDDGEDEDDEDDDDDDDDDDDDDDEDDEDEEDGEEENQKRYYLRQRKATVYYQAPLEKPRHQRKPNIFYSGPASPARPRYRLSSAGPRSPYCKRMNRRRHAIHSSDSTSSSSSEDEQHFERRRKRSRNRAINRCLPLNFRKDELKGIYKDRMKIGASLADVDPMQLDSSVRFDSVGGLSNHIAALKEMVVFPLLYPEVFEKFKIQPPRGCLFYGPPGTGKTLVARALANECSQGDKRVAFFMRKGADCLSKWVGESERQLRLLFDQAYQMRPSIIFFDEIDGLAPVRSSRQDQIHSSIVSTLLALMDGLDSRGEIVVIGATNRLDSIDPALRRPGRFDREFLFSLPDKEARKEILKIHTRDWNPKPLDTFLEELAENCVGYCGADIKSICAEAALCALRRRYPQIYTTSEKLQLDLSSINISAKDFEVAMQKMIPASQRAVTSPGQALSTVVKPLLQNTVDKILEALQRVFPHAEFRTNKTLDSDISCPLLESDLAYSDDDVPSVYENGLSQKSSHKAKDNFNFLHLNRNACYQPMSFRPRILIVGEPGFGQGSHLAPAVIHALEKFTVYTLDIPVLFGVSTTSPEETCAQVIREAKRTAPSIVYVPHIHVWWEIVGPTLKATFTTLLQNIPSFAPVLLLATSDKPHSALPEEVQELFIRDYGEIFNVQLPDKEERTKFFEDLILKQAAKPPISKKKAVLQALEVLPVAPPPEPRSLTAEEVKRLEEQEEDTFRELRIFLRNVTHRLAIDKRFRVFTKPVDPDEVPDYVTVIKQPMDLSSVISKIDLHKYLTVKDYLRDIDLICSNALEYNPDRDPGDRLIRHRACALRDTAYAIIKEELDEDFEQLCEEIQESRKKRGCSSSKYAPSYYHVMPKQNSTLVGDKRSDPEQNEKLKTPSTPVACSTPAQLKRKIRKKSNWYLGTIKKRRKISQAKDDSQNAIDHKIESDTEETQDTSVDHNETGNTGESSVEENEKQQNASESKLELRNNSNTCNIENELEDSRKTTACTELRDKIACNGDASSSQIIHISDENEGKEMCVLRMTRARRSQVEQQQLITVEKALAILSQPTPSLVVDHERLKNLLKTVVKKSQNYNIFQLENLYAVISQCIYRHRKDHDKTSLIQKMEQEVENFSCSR

SMILES | Kd
Cc1cn([C@@H]2O[C@H](CO)[C@@H](O)[C@H]2O)c(=O)[nH]c1=O | 21 mM
Cc1cn([C@@H]2O[C@H](CN)[C@@H](O)[C@H]2O)c(=O)[nH]c1=O | 17 mM
Cc1cn([C@H]2CC[C@@H](CO)O2)c(=O)[nH]c1=O | 18 mM
Cc1cn([C@H]2C[C@H](O)[C@@H](CO)O2)c(=O)[nH]c1=O [DOXRIBTIMINE] | 10 mM
Cc1c[nH]c(=O)[nH]c1=O [THYMINE] | 10 mM
